Earlier results in US20070275060A1, “Extended release solid pharmaceutical composition containing carbidopa and levodopa” (OSMOTICA COSTA RICA SOCIEDAD ANONIMA, priority 2005, published 2007).

Settings: orally administered

- time of peak concentrations: 30 to 120 min
SMILES: N[C@@H](Cc1ccc(O)c(O)c1)C(=O)O [LD]
